From US20110245335A1, “NEW INHIBITORS FOR TREATING DISEASES ASSOCIATED WITH AN EXCESS TRANSPORT OF HYALURONAN” (priority 2008, published 2011)

Experiments:
[1] = pKa of the acidic moiety (stated in design rationale, no method); type: physicochemical; settings: approximate values given in design rationale; no method described; read-out: pKa of the carboxylic moiety or its replacement
hyaluronan export = experiment: Assay for hyaluronan transport/export inhibitors in fibroblast cell culture (hyaluronan in culture medium by ELISA); type: cell-based; settings: 2 days at 37° C.
Description: Trypsinised fibroblasts were suspended in Dulbeccós medium at 10^5 cells/ml and 100 μl aliquots were transferred to a 96 well microtiter plate. The first row received 200 μl of the suspension and 20 μl of the inhibitors of the invention dissolved in phosphate buffered saline at concentrations of 4 mM. A serial dilution of the inhibitors was established by transfer of 100 μl aliquots from the first row to the following rows. All experiments were performed in duplicates. […] The cells were incubated for 2 days at 37° C. and aliquots (5 and 20 μl) of the culture medium were used for measurement of the hyaluronan concentration in the cell culture medium by an ELISA [125]. Briefly, the wells of a 96 well Covalink-NH-microtiter plate (NUNC) were coated with 100 μl of a mixture of […] of hyaluronan (Healon®), 9.2 μg/ml of N-Hydroxysuccinimide-3-sulfonic acid and 615 μl/ml of 1-ethyl-3-(3-dimethylaminopropyl)-carbodiimide for 2 hours at room temperature and overnight at 4° C. The wells were washed three times with 2 M NaCl, 41 mM MgSO4, 0.05% Tween-20 in 50 mM phosphate buffered saline pH 7.2 (buffer A) and once with 2 M NaCl, 41 mM MgSO4, in phosphate buffered saline pH 7.2. Additional binding sites were blocked by incubation with 300 μl of 0.5% bovine serum albumin in phosphate buffered saline for 30 min at 37° C. Calibration of the assay was performed with standard concentrations of hyaluronan ranging from 15 ng/ml to 6000 ng/ml in equal volumes of culture medium as used for measurement of the cellular supernatants. A solution (50 μl) of the biotinylated hyaluronan binding fragment of aggrecan (Calbiochem) in 1.5 M NaCl, 0.3 M guanidinium hydrochloride, 0.08% bovine serum albumin 0.02% NaN3 25 mM phosphate buffer pH 7.0 was preincubated with 50 μl of the standard hyaluronan solutions or cellular supernatants for 1 hour at 37° C. The mixtures were transferred to the hyaluronan-coated test plate and incubated for 1 hour at 37° C. The microtiter plate was washed three times with buffer A and incubated with 100 μl/well of a solution of streptavidin-horseraddish-peroxidase (Amersham) at a dilution of 1:100 in phosphate buffered saline, 0.1% Tween-20 for 30 min at room temperature. The plate was washed five times with buffer A and the colour was developed by incubation with a 100 μl/well of a solution of 5 mg o-phenylenediamine and 5 μl 30% H2O2 in 10 ml of 0.1 M citrate-phosphate buffer pH 5.3 for 25 min at room temperature. The adsorption was read at 490 nm. The concentrations in the samples were calculated from a logarithmic regression curve of the hyaluronan standard solutions.

[2] = system: II-1α activated bovine cartilage explants; settings: ref [14]; cited from earlier work

| pKa [1] | Structure (SMILES) | IC50 (hyaluronan export; Fibroblast, 48 h) [µM] | also measured |
| --- | --- | --- | --- |
| ~8 | CC(=O)Nc1c(O)cccc1Oc1ccccc1C(=O)NO [Compound 97] |  | IC50 (hyaluronan export; listed as No. 97): 30 µM |
| ~3 | CC(=O)Nc1ccccc1Oc1cccc(O)c1C(=O)O [Compound 86] |  | IC50 for hyaluronan export (hyaluronan export): no inhibitory activity |
| ~1 | CC(=O)Nc1c(O)cc(O)cc1Oc1ccc(Cl)cc1S(=O)(=O)O [Compound 99] | ~80 |  |

Continued, compound first:

| Structure (SMILES) | pKa [1] | IC50 (hyaluronan export; Fibroblast, 48 h) [µM] | also measured |
| --- | --- | --- | --- |
| CCCOc1ccccc1-c1nc2nn[nH]c2c(=O)[nH]1 [zaprinast] |  |  | infiltration of degrading enzymes [2]: reduced; proteoglycan content and collagen degradation [2]: normalized |
| CC(=O)Nc1c(O)cc(O)cc1Oc1ccc(NC/C=C/c2ccccc2)cc1C(=O)O [Compound 96] |  | 10 |  |
| CC(=O)Nc1c(O)cc(O)cc1Oc1cccc(N(C)C)c1C(=O)O [Compound 98] |  | 200 |  |
